Where a name gives a salt, the structure may show the parent alone. Read-outs that look alike come from different tables or passages of the source.
Assays:
[1] = molecular target: T1, GST-tagged truncated LRRK2 (Homo sapiens, UniProt Q5S007); experiment: LRRK2 Assay, Format 1 (Lantha Screen), WT; assay type: biochemical
T1 construct: GST-tagged truncated LRRK2 from Invitrogen (Cat # PV4874); GST; purchased Invitrogen PV4874
Procedure: LRRK2 kinase activity was measured using Lantha Screen technology from Invitrogen. GST-tagged truncated LRRK2 from Invitrogen (Cat # PV4874) was incubated with a fluorescein-labeled peptide substrate based upon ezrin/radixin/moesin (ERM), also known as LRRKtide (Invitrogen cat # PR8976A), in the presence of a dose response of compound. Upon completion, the assay was stopped and detected with a terbium labeled anti-phospho-ERM antibody (Invitrogen, cat # PR8975A). […] Aliquots (3.5 μL) of the 100% DMSO dose response were mixed with 46.5 μL water then 1 μL of this mixture was added to the 3 μL substrate mix in the 384-well plate. The kinase reaction was started with 3 μL of a working solution of LRRK2 enzyme at a concentration of 4 μg/mL. […] The reaction was allowed to progress at room temperature for two hours and then stopped with the addition of 7 μL of detection buffer (20 mM Tris pH 7.6, 0.01% NP-40, 0.02% NaN3, 6 mM EDTA with 2 nM terbium labeled anti-phospho-ERM).

[2] = molecular target: mutant G2019S LRRK2 (Homo sapiens, UniProt Q5S007, G2019S); experiment: LRRK2 Assay, Format 1 (Lantha Screen), G2019S mutant
Sequence of mutant G2019S LRRK2 (Q5S007 970-2527 G2019S limits assumed): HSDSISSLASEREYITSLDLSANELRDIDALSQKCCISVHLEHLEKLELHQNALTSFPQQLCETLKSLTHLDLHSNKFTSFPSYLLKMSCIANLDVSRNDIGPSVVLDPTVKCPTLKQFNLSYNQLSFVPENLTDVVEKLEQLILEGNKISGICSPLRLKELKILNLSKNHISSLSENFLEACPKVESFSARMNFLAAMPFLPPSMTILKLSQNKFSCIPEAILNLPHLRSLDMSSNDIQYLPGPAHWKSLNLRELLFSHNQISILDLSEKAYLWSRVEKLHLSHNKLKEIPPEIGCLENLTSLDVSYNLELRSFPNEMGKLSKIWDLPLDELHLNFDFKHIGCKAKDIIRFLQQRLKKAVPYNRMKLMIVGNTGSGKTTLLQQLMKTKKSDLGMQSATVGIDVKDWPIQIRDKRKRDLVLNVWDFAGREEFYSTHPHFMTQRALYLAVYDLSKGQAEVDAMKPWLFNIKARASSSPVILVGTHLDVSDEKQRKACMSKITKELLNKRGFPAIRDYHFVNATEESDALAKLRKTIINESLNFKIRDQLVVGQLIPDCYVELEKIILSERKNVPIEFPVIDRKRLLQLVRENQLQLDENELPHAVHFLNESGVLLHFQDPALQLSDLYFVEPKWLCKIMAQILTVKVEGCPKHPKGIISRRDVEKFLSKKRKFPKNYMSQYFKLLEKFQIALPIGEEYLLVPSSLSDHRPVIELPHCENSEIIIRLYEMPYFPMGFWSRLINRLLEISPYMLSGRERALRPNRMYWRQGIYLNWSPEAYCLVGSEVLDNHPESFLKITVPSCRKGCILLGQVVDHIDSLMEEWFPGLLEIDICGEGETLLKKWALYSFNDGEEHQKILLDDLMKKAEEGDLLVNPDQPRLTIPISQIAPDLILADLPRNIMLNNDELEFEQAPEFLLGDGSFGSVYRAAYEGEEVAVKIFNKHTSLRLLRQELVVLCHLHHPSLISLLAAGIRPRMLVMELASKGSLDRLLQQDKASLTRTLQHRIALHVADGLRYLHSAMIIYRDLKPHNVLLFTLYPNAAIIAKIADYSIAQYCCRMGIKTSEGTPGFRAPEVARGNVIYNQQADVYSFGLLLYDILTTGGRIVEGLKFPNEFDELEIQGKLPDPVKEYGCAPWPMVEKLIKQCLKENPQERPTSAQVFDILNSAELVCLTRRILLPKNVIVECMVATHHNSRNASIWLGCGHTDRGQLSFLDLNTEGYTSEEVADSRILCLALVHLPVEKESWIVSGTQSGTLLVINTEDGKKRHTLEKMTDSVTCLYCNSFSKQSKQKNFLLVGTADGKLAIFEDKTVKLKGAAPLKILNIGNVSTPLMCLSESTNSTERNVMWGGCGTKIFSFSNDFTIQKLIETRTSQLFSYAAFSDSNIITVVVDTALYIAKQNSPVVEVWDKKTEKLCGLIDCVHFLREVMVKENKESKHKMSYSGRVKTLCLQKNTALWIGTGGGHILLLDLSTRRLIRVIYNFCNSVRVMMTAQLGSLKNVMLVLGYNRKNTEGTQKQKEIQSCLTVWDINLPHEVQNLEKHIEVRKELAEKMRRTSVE

[3] = 100 nM LRRKtide, 50 μM ATP, 1.7 μg/mL LRRK2 enzyme, two hours at room temperature
[4] = Format 1, wild-type LRRK2, geometric mean of 2-4 determinations unless footnoted (a: ≥5 determinations; b: single determination; c: determined on trifluoroacetate salt)

T1 sequence (Q5S007 970-2527 limits assumed): as the sequence (Q5S007 970-2527 G2019S limits assumed) above, with S1050G counted along it

| SMILES | IC50 [1, 3] [nM] | IC50 [2] [nM] | IC50 [1, 4] [nM] | IC50 ([2]; read-out: LRRK2, Format 1 G2019S IC50, Format 1, G2019S mutant LRRK2, geometric mean of 2-4 determinations unless footnoted (a: ≥5 determinations; b: single determination; c: determined on trifluoroacetate salt)) [nM] |
| --- | --- | --- | --- | --- |
| C[C@@H]1C[C@@H](n2c(Cc3ccon3)nc3cnc4ccc(C#N)cc4c32)CCO1 [enantiomer of Example 24, 1-[(2R,4S)-2-methyltetrahydro-2H-pyran-4-yl]-2-(1,2-oxazol-3-ylmethyl)-1H-imidazo[4,5-c]quinoline-8-carbonitrile] | 267 | 134 |  |  |
| CC(C)(O)c1cn(Cc2nc3cnc4ccccc4c3n2C2CCOCC2)nn1 [Example 40, 2-(1-{[1-(tetrahydro-2H-pyran-4-yl)-1H-imidazo[4,5-c]quinolin-2-yl]methyl}-1H-1,2,3-triazol-4-yl)propan-2-ol] |  | 120 | 141 |  |
| c1ccc2oc(Cc3nc4cnc5ccccc5c4n3C3CCOCC3)nc2c1 [Example 34, 2-(1,3-benzoxazol-2-ylmethyl)-1-(tetrahydro-2H-pyran-4-yl)-1H-imidazo[4,5-c]quinoline] |  | 139 | 111 |  |
| Cc1nc(Cc2nc3cnc4ccc(Cl)cc4c3n2C2CCOC(CC#N)C2)no1 (single isomer, unassigned; ent-2) [enantiomer of Example 135, [cis-4-{8-chloro-2-[(5-methyl-1,2,4-oxadiazol-3-yl)methyl]-1H-imidazo[4,5-c]quinolin-1-yl}tetrahydro-2H-pyran-2-yl]acetonitrile, ENT-2] | 1450 | 1220 |  |  |
| Cc1nc2cnc3ccc(Cl)cc3c2n1C1CCOCC1 [Example 17, 8-chloro-2-methyl-1-(tetrahydro-2H-pyran-4-yl)-1H-imidazo[4,5-c]quinoline] |  | 132 | 125 |  |
| Cc1cn(Cc2nc3cnc4ccccc4c3n2C2CCOCC2)nn1 [Example 32, 2-[(4-methyl-1H-1,2,3-triazol-1-yl)methyl]-1-(tetrahydro-2H-pyran-4-yl)-1H-imidazo[4,5-c]quinoline] |  | 121 | 98.6 |  |
| CC[C@H]1C[C@@H](n2c(Cc3ccon3)nc3cnc4ccc(Br)cc4c32)CCO1 (racemic) [Example 66, 8-bromo-1-(cis-2-ethyltetrahydro-2H-pyran-4-yl)-2-(1,2-oxazol-3-ylmethyl)-1H-imidazo[4,5-c]quinoline] |  | 16.4 | 32.5 |  |
| C[C@@H]1C[C@H](n2c(Cc3cscn3)nc3cnc4ccc(C#N)cc4c32)C[C@H](C)O1 [Example 61, 1-[(2R,4r,6S)-2,6-dimethyltetrahydro-2H-pyran-4-yl]-2-(1,3-thiazol-4-ylmethyl)-1H-imidazo[4,5-c]quinoline-8-carbonitrile] |  | 67.9 | 181 |  |
| COc1ccc(Cc2nc3cnc4ccccc4c3n2C2CCOCC2)nc1 [Example 37, 2-[(5-methoxypyridin-2-yl)methyl]-1-(tetrahydro-2H-pyran-4-yl)-1H-imidazo[4,5-c]quinoline] |  | 143 | 133 |  |
| c1ccc2c(c1)ncc1nc(Cc3cn4ncsc4n3)n(C3CCOCC3)c12 [Example 69, 2-(imidazo[2,1-b][1,3,4]thiadiazol-6-ylmethyl)-1-(tetrahydro-2H-pyran-4-yl)-1H-imidazo[4,5-c]quinoline] |  | 82.4 | 78.2 |  |
| C[C@@H]1C[C@H](n2c(Cc3cscn3)nc3cnc4ccc(Cl)cc4c32)CCO1 [Example 10, 8-Chloro-1-[(2R,4R)-2-methyltetrahydro-2H-pyran-4-yl]-2-(1,3-thiazol-4-ylmethyl)(4-^2H)-1H-imidazo[4,5-c]quinoline] |  |  | 5 | 3 |
| CC[C@H]1C[C@@H](n2c(Cc3ccon3)nc3cnc4ccc(C#N)cc4c32)CCO1 [enantiomer of Example 67, 1-[(2S,4S)-2-ethyltetrahydro-2H-pyran-4-yl]-2-(1,2-oxazol-3-ylmethyl)-1H-imidazo[4,5-c]quinoline-8-carbonitrile] | 699 | 403 |  |  |
| C[C@H]1C[C@@H](n2c(Cc3cn4ncsc4n3)nc3cnc4ccc(F)cc4c32)CCO1 (racemic) [Example 86, 8-fluoro-2-(imidazo[2,1-b][1,3,4]thiadiazol-6-ylmethyl)-1-(cis-2-methyltetrahydro-2H-pyran-4-yl)-1H-imidazo[4,5-c]quinoline] |  | 5.6 | 7.6 |  |
| COc1ccc2ncc3nc(Cc4cn5ncsc5n4)n([C@H]4CCO[C@@H](C)C4)c3c2c1 [enantiomer of Example 90, 2-(imidazo[2,1-b][1,3,4]thiadiazol-6-ylmethyl)-8-methoxy-1-[(2S,4S)-2-methyltetrahydro-2H-pyran-4-yl]-1H-imidazo[4,5-c]quinoline] | 623 | 245 |  |  |
| C[C@@H]1C[C@H](n2c(Cc3cscn3)nc3cnc4ccc(Br)cc4c32)C[C@H](C)O1 [Example 60] |  | 11.5 | 35.1 |  |
| CC(C)c1cn(Cc2nc3cnc4ccccc4c3n2C2CCOCC2)nn1 [Example 44, 2-{[4-(propan-2-yl)-1H-1,2,3-triazol-1-yl]methyl}-1-(tetrahydro-2H-pyran-4-yl)-1H-imidazo[4,5-c]quinoline] |  | 72.2 | 62.5 |  |
| C[C@H]1C[C@@H](n2c(Cc3ccon3)nc3cnc4ccc(Br)cc4c32)CCO1 (single isomer, unassigned) [enantiomer of Example 12] | 510 | 226 |  |  |
| C[C@@H]1C[C@@H](n2c(Cc3ccon3)nc3cnc4ccc(C#N)cc4c32)CCO1 (racemic) [Example 23, 1-(trans-2-methyltetrahydro-2H-pyran-4-yl)-2-(1,2-oxazol-3-ylmethyl)-1H-imidazo[4,5-c]quinoline-8-carbonitrile] |  | 153 | 199 |  |
| CC[C@@H]1C[C@H](n2c(Cc3ccon3)nc3cnc4ccc(C#N)cc4c32)CCO1 [Example 67, 1-[(2R,4R)-2-ethyltetrahydro-2H-pyran-4-yl]-2-(1,2-oxazol-3-ylmethyl)-1H-imidazo[4,5-c]quinoline-8-carbonitrile] |  | 4 | 5.8 |  |
| c1ccc2c(c1)ncc1nc(Cc3cscn3)n(C3CCOCC3)c12 [Example 36, 1-(tetrahydro-2H-pyran-4-yl)-2-(1,3-thiazol-4-ylmethyl)-1H-imidazo[4,5-c]quinoline, formate salt] |  | 90.5 | 85.5 |  |
| C[C@@H]1C[C@H](n2c(Cc3ccon3)nc3cnc4ccc(Br)cc4c32)C[C@H](C)O1 [Example 59, 8-bromo-1-[(2R,4r,6S)-2,6-dimethyltetrahydro-2H-pyran-4-yl]-2-(1,2-oxazol-3-ylmethyl)-1H-imidazo[4,5-c]quinoline] |  | 52 | 176 |  |
| COc1ccc2ncc3nc(Cc4ccon4)n([C@H]4CCO[C@@H](C)C4)c3c2c1 [enantiomer of Example 62, 8-methoxy-1-[(2S,4S)-2-methyltetrahydro-2H-pyran-4-yl]-2-(1,2-oxazol-3-ylmethyl)-1H-imidazo[4,5-c]quinoline] | 1710 | 508 |  |  |
| C[C@H]1C[C@@H](n2c(Cn3cncn3)nc3cnc4ccc(Cl)cc4c32)CCO1 [enantiomer of Example 65, 8-chloro-1-[(2S,4S)-2-methyltetrahydro-2H-pyran-4-yl]-2-(1H-1,2,4-triazol-1-ylmethyl)-1H-imidazo[4,5-c]quinoline] | 687 | 241 |  |  |
| F[C@H]1CC[C@@H](n2c(Cc3ccon3)nc3cnc4ccccc4c32)C1 [Example 16, 1-[(1R,3S)-3-fluorocyclopentyl]-2-(1,2-oxazol-3-ylmethyl)-1H-imidazo[4,5-c]quinoline] |  | 184 | 158 |  |
| C[C@H]1C[C@@H](n2c(Cc3ccon3)nc3cnc4ccc(C#N)cc4c32)CCO1 (racemic) [Example 21, 1-(cis-2-methyltetrahydro-2H-pyran-4-yl)-2-(1,2-oxazol-3-ylmethyl)-1H-imidazo[4,5-c]quinoline-8-carbonitrile] |  | 4.5 | 7.5 |  |
| COCc1cn(Cc2nc3cnc4ccccc4c3n2C2CCOCC2)nn1 [Example 33, 2-{[4-(methoxymethyl)-1H-1,2,3-triazol-1-yl]methyl}-1-(tetrahydro-2H-pyran-4-yl)-1H-imidazo[4,5-c]quinoline] |  | 172 | 124 |  |
| c1ccc2c(c1)ncc1nc(Cc3ccon3)n(C3CCCCC3)c12 [Example 50, 1-cyclohexyl-2-(1,2-oxazol-3-ylmethyl)-1H-imidazo[4,5-c]quinoline] |  | 57.7 | 127 |  |
| c1ccc2c(c1)ncc1nc(Cn3nnc4ccccc43)n(C3CCOCC3)c12 [Example 41, 2-(1H-benzotriazol-1-ylmethyl)-1-(tetrahydro-2H-pyran-4-yl)-1H-imidazo[4,5-c]quinoline] |  | 93.5 | 124 |  |
| Cc1cn(Cc2nc3cnc4ccccc4c3n2[C@@H]2CC[C@H](F)C2)nn1 [Example 27, 1-[(1R,3S)-3-fluorocyclopentyl]-2-[(4-methyl-1H-1,2,3-triazol-1-yl)methyl]-1H-imidazo[4,5-c]quinoline, formate salt] |  | 118 | 188 |  |

— patent US10039753B2, “Imidazo[4,5-c]quinoline and imidazo[4,5-c][1,5]naphthyridine derivatives as LRRK2 inhibitors” (Pfizer Inc., priority 2015, dated 2018)
